A melting point compilation (Tetko et al.; mined from patent text by program, amines drawn as free bases though some values may be those of a salt)

SMILES	melting point
CN(C)C(=O)Cn1c(-c2ccc([N+](=O)[O-])cc2)nc2cccnc21	204 to 207 °C
OCC1OC(OCc2ccccc2)C(OCc2ccccc2)C(OCc2ccccc2)C1OCc1ccccc1 (stereo not drawn)	99 to 101 °C
COc1ccc(C(=O)NC(=O)Nc2cccc3c2CC(=O)N3)cc1	276 to 279 °C
COc1cccc(CC(=O)N[C@H]2N=C(c3ccccc3)c3ccccc3N(C)C2=O)c1	198 to 199 °C
CC(C)C(=O)NC1c2cc3nonc3cc2OC(C)(C)C1O (stereo not drawn)	194 to 196 °C
Cc1cccc(N2CCN(CCCCc3ccc(C4CCC(=O)N4)cc3)CC2)c1C (stereo not drawn)	112 to 114 °C
CCOC(=O)[C@@H]1CCC(=O)N1C(=O)OC(C)(C)C	48 to 49 °C
COC(=O)Cc1cc(OCc2ccc3ccccc3n2)ccc1Nc1ccccc1	106 to 107 °C
COc1cc2c(Nc3ccc(C)c(OC(C)=O)c3)ncnc2cc1OCc1ccsc1	201 to 203 °C
Cc1nc(OCC(F)(F)F)c([N+](=O)[O-])c(N2CCC(c3ccc(F)cc3)CC2)n1	61 to 64 °C
Cc1nc2ccc(Cn3ccnc3)cc2nc1Cl	116 °C
Cc1ccc(-c2cccc(/C=C/C(=O)Nc3ccc(CO)cc3)c2)cc1	220 to 223 °C
CON(C)C(=O)CN1CCC(CCN2CCN(c3cccc(C)c3C)CC2)CC1	66 °C
COC(=O)C1=Cc2cc(-c3ccc4c(c3)OCO4)ccc2S(=O)(=O)CC1	185 to 187 °C
Cc1cc(N)nc(C)c1-c1ccccc1	105 to 112 °C
O=C(CBr)c1cc2ccccc2[nH]1	125 to 130 °C
O=c1cc(NCCN2CCN(c3cccc4c3OCCO4)CC2)cn[nH]1	244 to 246 °C
OC[C@@H]1O[C@H](n2c(NC3CC3)nc3c(Br)c(Cl)c(Cl)cc32)[C@@H](O)[C@H]1O	205 to 208 °C
CCC(Cl)CCC(=O)c1cc(OC)c(OC)cc1F (stereo not drawn)	81 to 82 °C
CS(=O)(=O)N(Cc1cccnc1)c1ccc(O)cc1	208 to 210 °C
OCc1csc(N2CCCCC2)n1	89 to 90 °C
O=C(O)[C@H](Cc1c[nH]c2ccccc12)NS(=O)(=O)c1ccc(N2CCC(c3ccccc3)CC2)cc1	103 to 107 °C
CC12CCC3c4cc(O)c(OCc5ccccc5)cc4CCC3C1CCC2OCc1ccccc1 (stereo not drawn)	117 to 118 °C
Nc1cc2c(cc1Oc1ccccc1)C(=O)CCO2	154 to 155 °C
O=c1[nH]ncc2[nH]c(-c3ccc(OC(F)F)c(OC4CC4)c3)c(Cc3ccc(F)cc3)c12	193 to 195 °C

SMILES	melting point
Cc1ccc(N=C(Nc2ccc(C)cc2)ON2C(C)(C)CC(O)CC2(C)C)cc1	124 to 126 °C
CCOC(=O)c1snc(OCC)c1Br	40 to 43 °C
NC(CCCCNC(=O)OCc1ccccc1)C(=O)N(Cc1ccccc1)Cc1ccccc1 (stereo not drawn)	135 to 136 °C
CCCCc1nc(C(C)(C)O)c(C(=O)OCC)n1Cc1ccc(-c2ccccc2C(=O)OC(C)(C)C)cc1	92 to 93 °C
CCOC(=O)CNC(=O)Nc1ccc(S(=O)(=O)Nc2onc(C)c2C)cc1	115 to 125 °C
CCC(CC)(CCS(N)(=O)=O)COc1nn2ncnc2cc1C	148 to 149 °C
COCC1CCCN1S(=O)(=O)c1ccc2c(c1)C(=O)C1=NCC3(CCCC3)CN12 (stereo not drawn)	171 to 172 °C
O=C1N=c2ccc(Cl)cc2=N1	320 °C
CC(C)Cn1c(=O)n(C)c(=O)c2c(S(=O)(=O)CCCC(=O)O)c(Cc3cccc4ccccc34)sc21	174 to 175 °C
O=C(CBr)Nc1ccc(I)cc1	185 °C
CN1c2c(occ(CO)c2=O)-c2ccccc2S1(=O)=O	201 to 205 °C
CCOC(=O)Cn1ncc(-c2ccc(F)cc2)c1-c1ccccc1	86 to 87 °C
CC1CN(Cc2n[nH]c3ccccc23)CCN1c1ccccc1 (single isomer, unassigned; (+))	164 to 165 °C
O=Cc1ccc(-c2cccc(-c3ccnc4c(C(=O)c5cccs5)cnn34)c2)cc1	156 to 158 °C
Nc1nc(-c2ccc(F)cc2)cc(-c2ccc(F)cc2)n1	207 to 210 °C
CC(C)N(C)c1nc(Nc2cccc(NS(C)(=O)=O)c2)nc2[nH]cnc12	144 to 147 °C
CCOC(=O)c1cc(NCc2c(C)cccc2CC)c2nc(COC)n(C)c2c1	106 to 107 °C
CCCCOC(=O)c1cnc(C(=O)O)c(OC)c1	96 to 98 °C
N=C(NC=Cc1ccc([N+](=O)[O-])cc1)c1ccccc1	163 to 165 °C
CCCCCCCNC(=O)N(C)c1cccc(-c2ccc(CCC(=O)O)cc2)n1	108 °C
Oc1ccc(-c2ccc(O)c(Br)c2)cc1Br	118 to 121 °C
CC(C)(C)OC(=O)N1CCC(C(=O)NCCC(=O)OCc2ccccc2)C1 (stereo not drawn)	83 to 84 °C
CCON=Cc1ccccc1OCc1ccccc1C(=COC)C(=O)OC	86 to 88 °C
CCC(CC)c1nn(-c2ccc(C(F)(F)F)cn2)cc1CCCOc1c(CC(=O)O)ccnc1C	78 to 79 °C
CCOC(=O)C(C)Oc1ccc(OCc2ccccc2)c(F)c1 (stereo not drawn)	77 °C

SMILES	melting point
CC1N=C(c2ccccc2)c2cc(Cl)ccc2NC1=O (stereo not drawn)	224 °C
O=C(CCl)Nc1ccc2c(c1NC(=O)c1ccccc1F)C(=O)c1ccccc1C2=O	245 to 246 °C
COc1ccccc1NC(=O)Nc1nc2nc(NCCCN3CCN(C)CC3)ncc2cc1-c1c(Cl)cccc1Cl	152 to 154 °C
COc1cccc(C=CCN2CCc3nc(N)sc3CC2)c1OC	87 °C
O=C(O)c1ccccc1C(=O)OCC1CN(C(=O)Oc2ccccc2)CCC1c1ccc(F)cc1 (stereo not drawn)	149 to 151 °C
CCOC(=O)C(=CNCc1cnsn1)C(=O)c1cc(F)c(F)cc1F	168 to 170 °C
O=c1cc(C2(Br)CCCCC2)oc2c(CBr)cccc12	134 to 135 °C
COC(=O)c1c(OCC#N)c2cc(OC)ccc2n1C	136 to 137 °C
OC(Cn1cncn1)(c1ccc(F)cc1F)C(F)(F)SC1CC1 (stereo not drawn)	99 to 102 °C
CC(=O)N(CCc1nc(-c2ccccc2)oc1C)Cc1ccc(C[C@@H](C(=O)O)n2cccc2)cc1	82 to 87 °C
Cc1nc(-c2ccc(C(=O)O)cc2)sc1C(=O)O	> 300 °C
Cc1ccc(C(=O)Nc2nc(=O)c3ccccc3n2C)cc1	235 to 238 °C
COc1ccc(S(=O)(=O)C2(C(=O)NO)CCN(CCCc3ccccc3)CC2)cc1	143 °C
Cc1cc2c3c(c1)C(=O)C(=O)N3CCC2	188 °C
O=CNc1[nH]c(-c2ccc(F)cc2)nc1-c1ccccc1	245 to 247 °C
CCc1nnc2cc(N3CCN(C)CC3)nc(CC)n12	128 to 131 °C
CC(C)(C)OC(=O)NC(Cc1ccccc1)C(O)CNCC(O)C(Cc1ccccc1)NC(=O)C1c2ccccc2CN1C=O (stereo not drawn)	174 to 176 °C
CC(=O)Nc1cc(O)c(C(=O)CCCCl)cc1Cl	103 to 106 °C
CC(=O)c1ccc2c(c1)C(C)(C)CC(=O)N2C	75 to 77 °C
C#CCOC(=O)c1ncn2c1[C@@H]1CCCN1C(=O)c1c(Cl)cccc1-2	213 to 214 °C
O=C1c2cc(Oc3ccc(Cl)cc3)ccc2CCN1Cc1cccnc1	93.5 to 94.5 °C
CCn1c(=O)c2[nH]c(/C=C/c3ccc4c(c3)OCCO4)nc2n(CC)c1=O	> 300 °C
Cc1cc(C(=O)c2[nH]c(=O)[nH]c(=O)c2C(C)C)cc([N+](=O)[O-])c1	124 to 125 °C
Cc1ccc(C(=O)CCc2ccc(N)cc2)cc1	59 to 61 °C
COc1ccc(-c2cc3ccc(C(=O)O)cc3o2)cc1C(C)(C)C	235 °C

SMILES	melting point
O=C1C2C3COC2(C3)c2cccnc2N1c1ccccc1 (stereo not drawn)	198 to 200 °C
CCCCCc1c(C(C)C)nc(C(C)C)c(C(C)O)c1-c1ccc(F)cc1 (stereo not drawn)	83 °C
CCCCOc1cc(/C=C(\OCC)C(=O)O)ccc1OCCc1ccc(N(C)S(C)(=O)=O)cc1	112 °C
CCCC(CCC)N(C[C@H]1CCC[C@H](CN(C(=O)Nc2ccc(N(C)C)cc2)C(CCC)CCC)C1)C(=O)Nc1ccc(N(C)C)cc1 (relative stereo)	122 to 126 °C
Cc1nc(-c2ccccc2)nc(-c2cccc([N+](=O)[O-])c2)c1C(=O)NCCN(C)C	122 to 124 °C
Nc1ncnc2c1ncn2C1CC(O)C2CC21 (stereo not drawn)	259 to 261 °C
O=C(O)c1cccc(OCc2ccc3ccccc3n2)c1	178 to 182 °C
COc1cc(Cl)c2nc(NN)nc(N)c2c1OC	168 to 169 °C
CN(C)C1CC2(C)C(=O)CCC2C2CCC3CC(O)CCC3(C)C21 (stereo not drawn)	135 to 136 °C
O=C1NCC(c2cccs2)SCC1N1C(=O)c2ccccc2C1=O (stereo not drawn)	183 to 184 °C
Cc1c(F)cccc1NC(=O)c1ccccc1CN1C(=O)C2(COc3cc4c(cc32)CCO4)c2ccccc21 (stereo not drawn)	> 230 °C
COC(=O)CCCCCCCCOC1OC(CO)C(O)C(OC2OC(CO)C(O)C(O)C2OC2OC(C)C(O)C(O)C2O)C1NC(C)=O (stereo not drawn)	195 °C
CCCNC(=O)NCCCCN1CCC(CNC(=O)c2cc(Cl)c(N)cc2OC)CC1	114 to 115 °C
O=[N+]([O-])c1ccc2nc3c4ccccc4c4ccccc4c3nc2c1	253 to 255 °C
Cc1c(C)c2c(c(C)c1NCc1ccc(F)cc1)C(c1ccccc1)C(C)(C)O2 (stereo not drawn)	93 to 95 °C
CC1C(=NCCCN(C)C)c2c([nH]c3ccc(Cl)cc3c2=O)CC1c1ccc(C(F)(F)F)cc1 (stereo not drawn)	169 to 170 °C
O=CN(Cn1cc(Cl)cnc1=O)c1ccccc1	200 °C
Nc1ccc(C(=O)N2CCC(c3[nH]nc4c3C(=O)c3c(NC(=O)NN5CCOCC5)cccc3-4)CC2)cc1	198 to 200 °C
Cc1ccnc(-c2nc3ccccc3[nH]2)c1	228 to 229 °C
CCCCCCCCCCCCCCCCSCC(CNS(=O)(=O)CCCCl)n1nnnc1C (stereo not drawn)	62 to 62.5 °C
O=C(O)c1ccc(Cl)c(S(=O)(=O)c2ccccc2[N+](=O)[O-])c1	242 to 246 °C
CCN(CCF)CCN1C(=O)c2ccccc2C1=O	57 to 59 °C
CCc1nc2c(N)nc3c(c2n1CC(C)(C)OCCS(C)(=O)=O)CCCC3	225 to 227 °C
